Data reported in patent US12012412B2, “Solid forms of pyrazolo[3,4-d]pyrimidine compounds” (Pfizer Inc., priority 2021, dated 2024).
Values after ≈ are worked out from the molar mass of the structure shown. Like-named read-outs stand apart in the source and are kept apart here.

Experiments:
Assay type in all cases: physicochemical
[1] = VT-XRPD analysis of Solid Form B
Experimental: VT-XRPD analysis was carried out on a Philips X'Pert Pro Multipurpose diffractometer equipped with a temperature chamber. The samples were scanned between 4 and 35.99°2θ using Cu K radiation (α1λ=1.54060 Å; α2=1.54443 Å; β=1.39225 Å; α1:α2 ratio=0.5) running in Bragg-Brentano geometry (step size 0.008°2θ) using 40 kV/40 mA generator settings. Solid Form B was analyzed by VT-XRPD to assess changes in form upon heating. The sample was heated at 10° C./min and diffraction pattern collected at various temperatures (based on TG/DSC data).

[2] = Dynamic vapour sorption (DVS) assessment of Solid Form B
[3] = VH-XRPD analysis of Solid Form B
Experimental: VH-XRPD analysis was carried out on a Philips X'Pert Pro Multipurpose diffractometer equipped with a humidity chamber. The samples were scanned between 4 and 35.99°2θ using Cu K radiation (α1λ=1.54060 Å; α2=1.54443 Å; β=1.39225 Å; α1:α2 ratio=0.5) running in Bragg-Brentano geometry (step size 0.008°2θ) using 40 kV/40 mA generator settings. Variable humidity XRPD was carried out using the following method: A diffractogram was collected once each targeted % RH was reached and after the reported time had elapsed (Table 14 below). After 20 hours at 2% RH, some P2O5 was introduced within the stage chamber with the aim of further dry the environment. The sample was kept at these conditions for further 16 hours, during which a diffractogram was collected ever hour.

[4] = 7-day stability assessment of Solid Form B; conditions: 7 days; for HPLC purity (% rel. Area): input purity 100%
Experimental: 15 mg of Solid Form B was weighed into 3×1.5 mL vials. • One vial was left uncapped, placed inside a scintillation vial and stored at ambient conditions (ca. 20° C.). • One vial was left uncapped and placed inside a scintillation vial. This was placed in a stability oven at 40° C./75% RH. • One vial was capped and placed inside a scintillation vial. This was placed inside an oven at 80° C. After 7 days the samples were removed from their respective conditions, analyzed by XRPD and submitted for HPLC analysis.

[5] = Thermodynamic solubility assessment of Solid Form B; conditions: for solubility thermodynamic at 24 h: thermodynamic from solid; for solubility thermodynamic at 24 h / XRPD Pattern of residual solid: 24 hours

C[C@@H]1CN(Cc2ncccn2)C[C@H]1c1nc2c(cnn2C2CCOCC2)c(=O)[nH]1 [Solid Form B, 6-((3S,4S)-4-methyl-1-(pyrimidin-2-ylmethyl)pyrrolidin-3-yl)-1-(tetrahydro-2H-pyran-4-yl)-1,5-dihydro-4H-pyrazolo[3,4-d]pyrimidin-4-one]
XRPD (form observed on heating) ([1]; 30 °C, hold 0 mins (last step, after 135 °C)): Solid Form A | XRPD (form observed on heating) ([1]; 30 °C, hold 0 mins (start), heated at 10 °C/min): Solid Form B | XRPD (form observed on heating) ([1]; 85 °C, hold 0 mins): Solid Form C | XRPD (form observed on heating) ([1]; 85 °C, hold 5 mins): Solid Form C | Solid form observed upon heating (VT-XRPD) ([1]; 130° C.): mixture of Solid Form A and C | XRPD (form observed on heating) ([1]; 130 °C, hold 0 mins): Solid Form A/C | Solid form observed upon heating (VT-XRPD) ([1]; 135° C.): consistent with Solid Form A | XRPD (form observed on heating) ([1]; 135 °C, hold 0 mins): Solid Form A | XRPD (form observed on heating) ([1]; 135 °C, hold 10 mins): Solid Form A | Solid form observed upon heating (VT-XRPD) ([1]; heated to 85° C., 10° C./min): Solid Form C | Uptake (DVS) ([2]; at 80% RH): 4.3 wt. % | Mass loss on de-sorption/uptake on sorption (DVS) ([2]; between 0 and 10% RH): ca. 2.6 wt. % | Mass loss on de-sorption/uptake on sorption (DVS), water equivalents ([2]; between 0 and 10% RH): 0.6 eq. water | Uptake (DVS) ([2]; between 40 and 80% RH, first sorption cycle): 0.2 wt. % | XRPD form after DVS analysis ([2]; post DVS): consistent with Solid Form B with traces of Solid Form C | XRPD (form at variable humidity) ([3]; 2% RH, 0.5 hours): Solid Form B | XRPD (form at variable humidity) ([3]; 2% RH, 20 hours): Solid Form B | XRPD (form at variable humidity) ([3]; 10% RH, 1 hour): Solid Form B | XRPD (form at variable humidity) ([3]; 40% RH, 0 hours (start)): Solid Form B | XRPD (form at variable humidity) ([3]; 40% RH, 0.5 hours): Solid Form B | XRPD (form at variable humidity) ([3]; 90% RH, 0.5 hours): Solid Form B | Change in form under variable humidity (VH-XRPD) ([3]; variable % RH, down to 2% RH and with P2O5): no change in form | Solid form after storage (XRPD) ([4]; 40° C./75% RH): retained | XRPD (form after storage) ([4]; 40° C./75% RH): Solid Form B | HPLC purity (% rel. Area) ([4]; 40° C./75% RH): 100 % rel. Area | Solid form after storage (XRPD) ([4]; 80° C.): converted to a mixture of Solid Form A and Solid Form C | HPLC purity (% rel. Area) ([4]; 80° C.): 100 % rel. Area | XRPD (form after storage) ([4]; Ambient Light): Solid Form B | HPLC purity (% rel. Area) ([4]; Ambient Light): 100 % rel. Area | Solid form after storage (XRPD) ([4]; ambient temperature (ca. 20° C.)): retained | Purity change (HPLC) ([4]; ambient, 40° C./75% RH and 80° C.): no drop in purity | Solid form after solubility test (XRPD) ([5]; across the pH range, 25° C.): retained | solubility thermodynamic at 24 h ([5]; aqueous buffer, pH 4.5 buffer, 25° C., read-out: HPLC conc. (mg/mL), thermodynamic solubility): 162 mg/mL (≈ 411 mM) | solubility thermodynamic at 24 h ([5]; aqueous buffer, pH 6.8 buffer, 25° C., read-out: HPLC conc. (mg/mL), thermodynamic solubility): 21.8 mg/mL (≈ 55.1 mM) | solubility thermodynamic at 24 h ([5]; buffer, aqueous buffer, pH 4.5, 25° C., read-out: Thermodynamic solubility): > 150 mg/mL | XRPD Pattern of residual solid ([5]; pH 1.2 buffer, 25° C.): Solid Form B | XRPD Pattern of residual solid ([5]; pH 4.5 buffer, 25° C.): Solid Form B | XRPD Pattern of residual solid ([5]; pH 6.8 buffer, 25° C.): Solid Form B | solubility thermodynamic at 24 h ([5]; simulated gastric fluid, pH 1.2 buffer, 25° C., read-out: HPLC conc. (mg/mL), thermodynamic solubility): 46.7 mg/mL (≈ 118 mM)
